Test systems include MDA-MB-435; MOLT-4; M14; OVCAR-4; CAKI-1; CCRF-CEM; 786-0; Hs-578T; NCI-H460; SF-295; SK-MEL-28; OVCAR-5; SNB-19; UACC-257; MCF7; SF-268; SK-OV-3; RPMI-8226; Malme-3M.
Experiment in all cases: DTP human tumour cell line panel, 48 h

Consider ten compounds from ChEMBL document CHEMBL1201862, “PubChem BioAssay data set” (2004).

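Grown in 96-well plates, cells were treated for 48 hours with each compound at five concentrations. Insufficient inhibition: endpoint recorded as highest concentration tested. GI50 marks 50% less growth.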 Activity calls are given as the source filed them. Cut-off read from the data, not from the text of the source: active = GI50 up to about 1.1 µM and inactive = higher.

As for `c1ccc(CN2CCCN3CCN(CCCN(Cc4ccccc4)CC3)CC2)cc1`, the GI50 with MDA-MB-435 is 32.7 µM (inactive); with MOLT-4, 81.3 µM (inactive); in the test on M14, 38 µM (inactive); in the test with OVCAR-4 it was 35.6 µM (inactive); in the test on CAKI-1, > 100 µM (inactive); with CCRF-CEM it was 46.9 µM (inactive). In addition, the GI50 is 42.2 µM (inactive) in the test with 786-0; > 100 µM (inactive) in the test with Hs-578T; 39.4 µM (inactive) in the test on NCI-H460; 87.7 µM (inactive) in the test with SF-295; 39.4 µM (inactive) in the test with SK-MEL-28; > 100 µM (inactive) in the test with OVCAR-5. Also, the GI50 in the test with SNB-19 was 35.5 µM (inactive); in the test with UACC-257, 22 µM (inactive); with MCF7, 38.3 µM (inactive); in the test on SF-268 it was 78.7 µM (inactive); in the test with SK-OV-3, > 100 µM (inactive); in the test with RPMI-8226, 13 µM (inactive). Moreover, in the test with Malme-3M, the 50% growth inhibitory concentration (GI50) is 0.227 µM (active).
As for `CC(=O)c1cccc(Nc2c3ccccc3nc3occc23)c1`, the 50% growth inhibitory concentration (GI50) is 1.07 µM (active) in the test with MDA-MB-435; 5.27 µM (inactive) with MOLT-4; 4.3 µM (inactive) with M14; 0.438 µM (active) in the test with OVCAR-4; 2.48 µM (inactive) with CAKI-1; 3.3 µM (inactive) in the test on CCRF-CEM. Also, the GI50 with 786-0 is 4.08 µM (inactive); in the test with Hs-578T, 5.15 µM (inactive); with NCI-H460, 22.8 µM (inactive); in the test on SF-295 it was 3.83 µM (inactive); with SK-MEL-28, 2.67 µM (inactive); in the test with OVCAR-5 it was 37.2 µM (inactive). Moreover, the GI50 in the test on SNB-19 was 10.9 µM (inactive); in the test on UACC-257, 11.3 µM (inactive); with MCF7 it was 3.94 µM (inactive); in the test with SF-268, 16.1 µM (inactive); with SK-OV-3 it was 10.6 µM (inactive); in the test with RPMI-8226, 3.34 µM (inactive). In addition, in the test with Malme-3M, the GI50 was 4.9 µM (inactive).
Turning to `O=[N+]([O-])c1ccc(C2=NOC(c3ccccc3)N2C23CC4CC(CC(C4)C2)C3)cc1` (stereo not given), the GI50 is 21.8 µM (inactive) in the test with MDA-MB-435; 17.5 µM (inactive) in the test with MOLT-4; 32.7 µM (inactive) with M14; 39.1 µM (inactive) in the test with OVCAR-4; 1.36 µM (inactive) with CAKI-1; 21.7 µM (inactive) in the test on CCRF-CEM. Moreover, the GI50 in the test with 786-0 was 17.6 µM (inactive); with Hs-578T it was 19.5 µM (inactive); in the test on NCI-H460, 19.3 µM (inactive); in the test on SF-295 it was 26.8 µM (inactive); in the test with SK-MEL-28 it was 58.5 µM (inactive); in the test with OVCAR-5, 14.4 µM (inactive). In addition, the GI50 was > 10 µM (inactive) in the test on SNB-19; 47.8 µM (inactive) in the test with UACC-257; 24.8 µM (inactive) with MCF7; 59.6 µM (inactive) in the test on SF-268; 43.2 µM (inactive) in the test on SK-OV-3; > 10 µM (inactive) in the test with RPMI-8226. Besides, the GI50 with Malme-3M is 25.1 µM (inactive).
`NC(=O)NC1C(c2ccccc2)=C1c1ccccc1`: the GI50 in the test with MDA-MB-435 is 18.7 µM (inactive); with MOLT-4 it was 4.88 µM (inactive); with M14, 19.1 µM (inactive); with OVCAR-4, 15.3 µM (inactive); with CAKI-1, 18.9 µM (inactive); in the test on CCRF-CEM, 5.47 µM (inactive). Also, the GI50 is 22.4 µM (inactive) in the test with 786-0; 27.6 µM (inactive) in the test on Hs-578T; 15.5 µM (inactive) with NCI-H460; 17.6 µM (inactive) in the test with SF-295; 17.1 µM (inactive) with SK-MEL-28; 23.2 µM (inactive) in the test on OVCAR-5. For the same compound, the GI50 was 34.8 µM (inactive) in the test on SNB-19; 18.6 µM (inactive) in the test on UACC-257; 14.7 µM (inactive) with MCF7; 13.4 µM (inactive) in the test with SF-268; 15.6 µM (inactive) in the test on SK-OV-3; 7.21 µM (inactive) with RPMI-8226. Besides, the GI50 in the test on Malme-3M is 21.1 µM (inactive).
Regarding `CC(Oc1ccccc1Cl)C(=O)NN1C(=O)CC(=O)N(c2ccc(Cl)cc2)C1=S` (stereo not given), the GI50 with MDA-MB-435 is 61 µM (inactive); with MOLT-4, 27.4 µM (inactive); with M14, 47.5 µM (inactive); with OVCAR-4 it was 28.1 µM (inactive); in the test with CAKI-1, 40.7 µM (inactive); in the test with CCRF-CEM, < 0.01 µM (active). Further, the GI50 was 40.8 µM (inactive) in the test with 786-0; 49.8 µM (inactive) in the test on Hs-578T; 39.3 µM (inactive) with NCI-H460; 44.1 µM (inactive) in the test with SF-295; 94.6 µM (inactive) in the test on SK-MEL-28; 75.3 µM (inactive) in the test with OVCAR-5. Also, the GI50 was 66.5 µM (inactive) in the test on SNB-19; 45.1 µM (inactive) with UACC-257; 29.6 µM (inactive) with MCF7; 67.1 µM (inactive) with SF-268; 59 µM (inactive) in the test on SK-OV-3; 33.2 µM (inactive) with RPMI-8226. In the test on Malme-3M, the GI50 was > 100 µM (inactive).
On to `O=C(/C=C/c1ccc(F)c(F)c1)OCCc1ccccc1`, for which the GI50 is > 100 µM (inactive) in the test with MDA-MB-435; 18 µM (inactive) in the test with MOLT-4; > 100 µM (inactive) in the test with M14; 91.8 µM (inactive) in the test with OVCAR-4; 67.1 µM (inactive) with CAKI-1; 29.8 µM (inactive) in the test with CCRF-CEM. The GI50 with 786-0, in the test on Hs-578T, in the test on NCI-H460, in the test with SF-295, with SK-MEL-28 and with OVCAR-5 was > 100 µM (inactive) in each case. Further, the GI50 is > 100 µM (inactive) with SNB-19; > 100 µM (inactive) with UACC-257; 81.8 µM (inactive) in the test with MCF7; > 100 µM (inactive) in the test on SF-268; > 100 µM (inactive) in the test with SK-OV-3; 77.6 µM (inactive) in the test with RPMI-8226. For the same compound, the GI50 in the test with Malme-3M was > 100 µM (inactive).
With `CC(=O)OCC1OC(OC(C)=O)C(Nc2ncc(-c3ccc(C)cc3)s2)C(OC(C)=O)C1OC(C)=O` (stereo not given), the GI50 in the test on MDA-MB-435 was 15.8 µM (inactive); in the test on MOLT-4, 11 µM (inactive); in the test with M14 it was 18.1 µM (inactive); with OVCAR-4, 16.9 µM (inactive); in the test on CAKI-1, 16.9 µM (inactive); with CCRF-CEM, 4.4 µM (inactive). The GI50 was 16.6 µM (inactive) with 786-0; 22.5 µM (inactive) in the test on Hs-578T; 18.5 µM (inactive) with NCI-H460; 22.9 µM (inactive) with SF-295; 17.4 µM (inactive) in the test on SK-MEL-28; 43.1 µM (inactive) in the test on OVCAR-5. The GI50 is 21.4 µM (inactive) with SNB-19; 20.1 µM (inactive) with UACC-257; 20.3 µM (inactive) in the test on MCF7; 16.5 µM (inactive) with SF-268; 44.1 µM (inactive) in the test on SK-OV-3; 12.9 µM (inactive) in the test on RPMI-8226. Also, the GI50 with Malme-3M was 21.2 µM (inactive).
As to `C=C1CC(C)(COc2cc(=O)oc3ccccc23)OC1=O` (stereo not given), the GI50 with MDA-MB-435 is 5.53 µM (inactive); in the test on MOLT-4 it was 1.94 µM (inactive); in the test with M14, 1.42 µM (inactive); in the test on OVCAR-4, 3.87 µM (inactive); in the test with CAKI-1, 2.22 µM (inactive); in the test with CCRF-CEM, 1.86 µM (inactive). In addition, the GI50 in the test with 786-0 is 2.84 µM (inactive); in the test with Hs-578T it was 7.74 µM (inactive); in the test on NCI-H460 it was 11.1 µM (inactive); in the test on SF-295, 12.7 µM (inactive); in the test on SK-MEL-28, 3.05 µM (inactive); in the test with OVCAR-5 it was 7.78 µM (inactive). In addition, the GI50 was 15.8 µM (inactive) in the test with SNB-19; 1.87 µM (inactive) in the test on UACC-257; 1.74 µM (inactive) with MCF7; 14.9 µM (inactive) with SF-268; 10.6 µM (inactive) in the test on SK-OV-3; 0.637 µM (active) in the test on RPMI-8226. For the same compound, the GI50 in the test on Malme-3M was 2.04 µM (inactive).
Consider `C/C(=N/NC(=S)N(C)CCc1ccccn1)c1cnccn1`, for which the GI50 in the test with MDA-MB-435 is 0.867 µM (active); in the test on MOLT-4 it was < 0.01 µM (active); with M14, < 0.01 µM (active); with OVCAR-4, < 0.01 µM (active); with CAKI-1 it was < 0.01 µM (active); in the test on CCRF-CEM, < 0.0358 µM (active). Also, the GI50 was 0.0977 µM (active) with 786-0; 2.63 µM (inactive) with Hs-578T; 0.047 µM (active) in the test on NCI-H460; 0.177 µM (active) with SF-295; 0.933 µM (active) in the test with SK-MEL-28; 0.516 µM (active) in the test on OVCAR-5. The GI50 in the test with SNB-19 was 0.437 µM (active); in the test on UACC-257 it was < 0.015 µM (active); with MCF7, < 0.01 µM (active); in the test with SF-268, < 0.01 µM (active); in the test with SK-OV-3 it was 0.0235 µM (active); in the test on RPMI-8226, < 0.01 µM (active). In addition, the GI50 in the test on Malme-3M is < 0.01 µM (active).
For `CCOP(=O)(O)C(Nc1ccc(/N=N/c2ccccc2)cc1)c1cccc(C(Nc2ccc(/N=N/c3ccccc3)cc2)P(=O)(O)OCC)c1` (stereo not given), the GI50 was 58.7 µM (inactive) with MDA-MB-435; 16.7 µM (inactive) in the test on MOLT-4; 40.6 µM (inactive) in the test on M14; 47.2 µM (inactive) in the test on OVCAR-4; 66.1 µM (inactive) with CAKI-1; 15.5 µM (inactive) with CCRF-CEM. In addition, the GI50 is 60 µM (inactive) in the test on 786-0; 38.7 µM (inactive) in the test on Hs-578T; 33.3 µM (inactive) in the test with NCI-H460; 24 µM (inactive) in the test on SF-295; 32.3 µM (inactive) with SK-MEL-28; 40.6 µM (inactive) with OVCAR-5. Moreover, the GI50 in the test with SNB-19 is 59.8 µM (inactive); in the test on UACC-257, 57 µM (inactive); with MCF7 it was 35.2 µM (inactive); with SF-268, 69.8 µM (inactive); in the test with SK-OV-3 it was 81.3 µM (inactive); with RPMI-8226, 23.2 µM (inactive). In addition, the GI50 in the test on Malme-3M is > 100 µM (inactive).
